Data: paper PMC10974290, “Biocatalytic Synthesis of Coumarin S-Glycosides: Towards Non-Cytotoxic Probes for Biomedical Imaging and Sensing” (Molecules, 2024)

Key:
[1] = UV-visible absorbance spectroscopy; type: physicochemical; conditions: 0.1 mM; for emax (molar absorption coefficient): 7-MC + DTT 10 mM; for Absorbance ε (molar absorption coefficient) / Absorbance λmax abs: 7-MC in presence of 10 mM DTT
Experimental: Subsequently, the analysis was carried out under two distinct conditions: firstly, in DMF, at a final concentration of 0.1 mM; and secondly, in a mixture PBS:DMF (99:1%), at the same final concentration of 0.1 mM. These two experimental setups provided valuable insights into the spectral characteristics of the compounds in both a pure organic solvent and a solvent system closely resembling physiological conditions. The maxima absorption wavelengths are compiled in Table 3. These bands were attributed to transitions within the benzene and pyrone moieties, considered together as a single chromophore. […] Similarly, 7-MC and S-1 to S-6 compounds also absorb in this UV range (λmax = 328–330 nm). […] In the organic solvent, these values are found to be higher compared to those calculated for 4-MUB and 7-MC. Conversely, in PBS, the extinction coefficients for S-glycosides are lower compared to the parent thiol 7-MC. This highlights the profound impact of glycosylation on absorption properties, as well as the importance of solvent choice.
Both absorbance and fluorescence spectra were measured on a Tecan […] M PLEX 200 Pro plate reader equipped with monochromator allowing a scan from 230 to 1000 nm. All synthesized molecules were initially dissolved in 10 mM DMF and subsequently diluted in freshly prepared PBS (pH = 7.4) to achieve a final concentration of 0.1 mM. The solutions were then transferred to a Corning (Corning, NY, USA) UV-transparent 96-well plate. Absorbance spectra were recorded from 230 to 800 nm. Emission fluorescence spectra were recorded from 320 to 800 nm, under excitation at 280 nm. Excitation fluorescence spectra were recorded from 230 to 380 nm for an emission at 420 nm. All spectra were recorded with a wavelength step size of 2 nm. Data processing was performed with Excel software 2016. Fluorescence spectra are presented as normalized spectra ranging from 0 to 1. The relative quantum yields were calculated according to Equation (1):(1) ΦT=(AR/AT)×(FT/FR)×[…]×ΦR where Φ is the fluorescence quantum yield, A is the absorbance at the excitation wavelength, F is the area under the corrected emission curve, and n is the refractive index of the solvent for the test compound (T) and the reference (R). The 4-MUB value in DMF was used as the reference. The LOD (resp. LOQ) values were determined as the minimal concentration of product S-3 required to yield a fluorescence that was twice greater than (respectively, 5-times that of) the fluorescence noise on a sample containing PBS, using an excitation wavelength of 280 nm and an emission wavelength of 386 nm (Figure S44).

[2] = system: SK-MEL-28 (melanoma skin cancer); test: MTT cell proliferation assay, SK-MEL-28; type: cell-based; conditions: Homo sapiens, 72 h incubation, 95% confidence interval in parentheses
Experimental: (§1) To use these S-glycosidic compounds in cellulo, the potential impact of the glycosidic linkage nature on the anticancer activity was assessed. The S-glycoside derivatives and the 7-MC were tested against four human cancer cell lines and a healthy one, namely A549 (lung carcinoma), HS-683 (glioma cancer), MCF-7 (breast adenocarcinoma), SK-MEL-28 (melanoma skin cancer), and HaCaT (keratinocyte normal skin), using MTT (thiazolyl blue tetrazolium bromide, Sigma-Aldrich, St. Louis, MO, USA) assay, as previously described in the literature. The selected reference drugs were 5-fluorouracil (5-FU) and etoposide.
(§2) Cell proliferation of five distinct cell lines was evaluated using the colorimetric MTT (thiazolyl blue tetrazolium bromide, Sigma) assay. Human keratinocyte normal skin HaCaT was cultivated in DMEM supplemented with 4.5 g/L glucose, 2 mM L-glutamine, and 10% FBS. Cancer cell lines and their respective growth media were obtained from CLS Cell Line Service GmbH (Eppelheim, Germany). Specifically, human skin melanoma SK-MEL-28 and human brain glioma HS683 were cultivated in DMEM with identical supplements as HaCaT cells. The human lung carcinoma cell line A-549 was grown in DMEM/Ham’s F12 (1:1) medium supplemented with 2 mM L-glutamine and 5% FBS. Additionally, human breast adenoma carcinoma MCF-7 cells were sustained in EMEM supplemented with 2 mM L-glutamine, sodium pyruvate, non-essential amino acids (NEAAs), 10 µg/mL insulin human, and 10% FBS. The MTT assay relies on the reduction of the yellow product thiazolyl blue tetrazolium bromide (MTT) to formazan, a purple-blue product, by mitochondrial dehydrogenases in metabolically active cells. The number of living cells after incubation in the presence (or absence, control) of the tested molecules is directly proportional to the blue color, which was measured by spectrophotometry. To perform the assay, cells were initially seeded at a density of 2500 cells/mL in 96-well culture plates (Nunc™ Edge 2.0, Fisher) and allowed to adhere and proliferate over a 24-hour incubation period. Following this, the cells were treated with various concentrations of the tested compounds, which were previously prepared as serial dilutions and dissolved in 0.1% DMSO. These stable solutions guarantee the consistency of experimental conditions over extended periods. Each concentration of the tested compounds underwent triplicate testing (n = 3), and cells were subsequently incubated for 72 h to allow for thorough evaluation. Following this incubation period, MTT reagent (5 mg/mL solution in PBS) was introduced to each well (10% v/v), and cells were further incubated for 4 h. Then, the culture medium was carefully removed, and the resulting blue formazan crystals were dissolved in 100 µL of 100% DMSO. Absorbance readings were taken at 540 nm, referencing a wavelength of 620 nm, using a spectrophotometer. In determining the IC50, the absorbance of serial dilutions of each cell line, treated under identical conditions but without the presence of the tested compounds, was measured.

[3] = system: MCF-7 (breast adenocarcinoma); test: MTT cell proliferation assay, MCF-7; type: cell-based; conditions: Homo sapiens, MCF7, 72 h incubation, 95% confidence interval in parentheses
Experimental: as §1, §2

Row | SMILES | emax (molar absorption coefficient) ([1]; DMF) | Absorbance ε (molar absorption coefficient) ([1]; DMF) | Absorbance λmax abs ([1]; DMF) [nm] | emax (molar absorption coefficient) ([1]; PBS 1x (pH = 7.4)) | Absorbance ε (molar absorption coefficient) ([1]; PBS (PBS:DMF 99:1, pH 7.4)) | Absorbance λmax abs ([1]; PBS (PBS:DMF 99:1, pH 7.4)) [nm] | IC50 [2] [mM] | IC50 [3] [mM]
1 | Cc1cc(=O)oc2cc(S)ccc12 [Compound 7-MC, 7-mercapto-4-methylcoumarin, reference compound] | 10409,59 cm-1 M-1 | 10.4 10^3 M^−1 cm^−1 | 328 | 28929,88854 cm-1 M-1 | 28.9 10^3 M^−1 cm^−1 | 368 | 0.306 | > 1
2 | Cc1cc(=O)oc2cc(S[C@@H]3O[C@H](C(=O)O)[C@@H](O)[C@H](O)[C@H]3O)ccc12 [Compound S-1, 4-Methylumbellifer-7-yl 1-thio-β-D-glucopyranosiduronic acid] | 26660,51579 cm-1 M-1 | 26.7 10^3 M^−1 cm^−1 | 330 | 23328,41338 cm-1 M-1 | 23.3 10^3 M^−1 cm^−1 | 326 | > 1 | > 1
3 | Cc1cc(=O)oc2cc(S[C@@H]3OC[C@@H](O)[C@H](O)[C@H]3O)ccc12 [Compound S-2, 4-Methylumbellifer-7-yl 1-thio-β-D-xylopyranoside] |  | 19.5 10^3 M^−1 cm^−1 | 330 | 26044,28033 cm-1 M-1 | 26.0 10^3 M^−1 cm^−1 | 324 | 0.228 | 0.128
4 | Cc1cc(=O)oc2cc(S[C@@H]3O[C@H](CO)[C@@H](O)[C@H](O)[C@H]3O)ccc12 [Compound S-3, 4-Methylumbellifer-7-yl 1-thio-β-D-glucopyranoside] | 18634,68658 cm-1 M-1 | 18.6 10^3 M^−1 cm^−1 | 330 | 20778,59706 cm-1 M-1 | 20.8 10^3 M^−1 cm^−1 | 326 | > 1 | > 1
5 | Cc1cc(=O)oc2cc(S[C@@H]3O[C@H](CO)[C@H](O)[C@H](O)[C@H]3O)ccc12 [Compound S-4, 4-Methylumbellifer-7-yl 1-thio-β-D-galactopyranoside] | 22265,68277 cm-1 M-1 | 22.3 10^3 M^−1 cm^−1 | 330 | 18357,93367 cm-1 M-1 | 18.4 10^3 M^−1 cm^−1 | 326 | > 1 | > 1
6 | Cc1cc(=O)oc2cc(S[C@@H]3O[C@H](C)[C@H](O)[C@H](O)[C@H]3O)ccc12 [Compound S-5, 4-Methylumbellifer-7-yl 1-thio-β-D-fucopyranoside] | 22294,93104 cm-1 M-1 | 22.3 10^3 M^−1 cm^−1 | 330 |  | 10.4 10^3 M^−1 cm^−1 | 326 | > 1 | > 1
7 | Cc1cc(=O)oc2cc(S[C@H]3O[C@H](CO)[C@H](O)[C@H](O)[C@H]3O)ccc12 [Compound S-6, 4-Methylumbellifer-7-yl 1-thio-α-D-galactopyranoside] | 22265,68277 cm-1 M-1 | 22.3 10^3 M^−1 cm^−1 | 330 | 19811,80752 cm-1 M-1 | 19.8 10^3 M^−1 cm^−1 | 326 | > 1 | > 1
